Measured values from patent US20150344540A1, “NOVEL GLP-1 RECEPTOR AGONISTS WITH CHOLESTEROL EFFLUX ACTIVITY” (NOVO NORDISK A/S, priority 2012, published 2015).
Where two headings read alike, the source gives them in different places. Where a SMILES comes first, the peptide text is derived from it. [ ]: non-standard residue; d: D form. Aib = CC(C)(N)C(=O)O

Experiments:
[1] = biological target: human GLP-1 receptor (Homo sapiens, UniProt P43220); assay: Functional GLP-1 receptor assay, in vitro potency (CRE luciferase; whole cells); format: cell-based; conditions: BHK cells expressing human GLP-1 receptor
[2] = tested on: Mouse monocyte/macrophage cell line, RAW 264.7; assay: Cholesterol efflux assay (3H-cholesterol, macrophage cell line); format: cell-based; conditions: RAW 264.7, 4 hrs incubation, 0.1% human serum albumin, ABCA1-mediated efflux
[3] = GLP1R CRE luc 1% HSA EC50 Mean Value, 1% HSA

Sequence of human GLP-1 receptor (P43220 24-463): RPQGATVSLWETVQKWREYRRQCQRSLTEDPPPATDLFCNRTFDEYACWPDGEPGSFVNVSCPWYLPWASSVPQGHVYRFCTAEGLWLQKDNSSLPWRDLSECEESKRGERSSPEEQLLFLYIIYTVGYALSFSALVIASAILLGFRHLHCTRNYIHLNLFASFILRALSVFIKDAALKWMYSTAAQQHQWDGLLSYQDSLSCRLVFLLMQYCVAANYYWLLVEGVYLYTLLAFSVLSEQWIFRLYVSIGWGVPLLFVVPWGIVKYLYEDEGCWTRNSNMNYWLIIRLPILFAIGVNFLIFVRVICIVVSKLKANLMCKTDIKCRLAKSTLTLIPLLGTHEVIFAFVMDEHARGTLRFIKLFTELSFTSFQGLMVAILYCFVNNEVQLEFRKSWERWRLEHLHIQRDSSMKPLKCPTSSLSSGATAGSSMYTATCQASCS

EC50 ([1]; 0% HSA, read-out: GLP1R CRE luc 0% HSA EC50 Mean Value) [pM] | EC50 [1, 3] [pM] | Compound | 4 h Cholesterol Efflux Emax [2] [%]
10 | 4 | CC[C@H](C)[C@H](NC(=O)[C@H](Cc1ccccc1)NC(=O)[C@H](CCC(=O)O)NC(=O)[C@H](CCCCN)NC(=O)[C@@H](NC(=O)[C@H](C)NC(=O)[C@H](CCC(=O)O)NC(=O)CNC(=O)[C@H](CCC(=O)O)NC(=O)[C@H](CC(C)C)NC(=O)[C@H](Cc1ccc(O)cc1)NC(=O)[C@H](CO)NC(=O)[C@H](CO)NC(=O)[C@@H](NC(=O)[C@H](CC(=O)O)NC(=O)[C@H](CO)NC(=O)[C@@H](NC(=O)[C@H](Cc1ccccc1)NC(=O)[C@@H](NC(=O)CNC(=O)[C@H](CCC(=O)O)NC(=O)C(C)(C)NC(=O)[C@@H](N)Cc1c[nH]cn1)[C@@H](C)O)[C@@H](C)O)C(C)C)C(C)C)C(=O)N[C@@H](C)C(=O)N[C@@H](Cc1c[nH]c2ccccc12)C(=O)N[C@@H](CC(C)C)C(=O)N[C@H](C(=O)NCC(=O)NC(C)(C)C(=O)N[C@@H](CCCCN)C(=O)N[C@@H](CCC(=O)O)C(=O)N[C@@H](Cc1ccccc1)C(=O)N[C@@H](CC(C)C)C(N)=O)C(C)C [Compound 10] (H-H[Aib]EGTFTSDVSSYLEGEAVKEFIAWLVG[Aib]KEFL-NH2) | 79
– | 29 | CC(C)C[C@H](NC(=O)[C@H](Cc1ccccc1)NC(=O)[C@H](CCC(=O)O)NC(=O)[C@H](CCCCN)NC(=O)C(C)(C)NC(=O)[C@H](CCCCN)NC(=O)[C@H](CCC(=O)O)NC(=O)[C@H](CC(C)C)NC(=O)[C@H](CC(C)C)NC(=O)[C@H](Cc1c[nH]c2ccccc12)NC(=O)[C@H](CCC(N)=O)NC(=O)[C@@H](NC(=O)[C@H](Cc1ccccc1)NC(=O)[C@H](CCC(=O)O)NC(=O)[C@H](CCCNC(=N)N)NC(=O)[C@@H](NC(=O)[C@H](C)NC(=O)[C@H](CCC(=O)O)NC(=O)CNC(=O)[C@H](CCC(=O)O)NC(=O)[C@H](CC(C)C)NC(=O)[C@H](Cc1ccc(O)cc1)NC(=O)[C@H](CO)NC(=O)[C@H](CO)NC(=O)[C@@H](NC(=O)[C@H](CC(=O)O)NC(=O)[C@H](CO)NC(=O)[C@@H](NC(=O)[C@H](Cc1ccccc1)NC(=O)[C@@H](NC(=O)CNC(=O)[C@H](CCC(=O)O)NC(=O)C(C)(C)NC(=O)[C@@H](N)Cc1c[nH]cn1)[C@@H](C)O)[C@@H](C)O)C(C)C)C(C)C)C(C)C)C(N)=O [Compound 80, [Aib8,Glu23,Val25,Arq26,Val29,Gln30,Leu33,Glu34,Lys35,Aib36,Lys37]-GLP-1-(7-37)-peptidyl-Glu-Phe-Leu amide] (H-H[Aib]EGTFTSDVSSYLEGEAVREFVQWLLEK[Aib]KEFL-NH2) | 108
– | 61 | CC[C@H](C)[C@H](NC(=O)[C@H](Cc1ccccc1)NC(=O)[C@H](CCC(=O)O)NC(=O)[C@H](CCCCN)NC(=O)[C@@H](NC(=O)[C@H](C)NC(=O)[C@H](CCC(=O)O)NC(=O)CNC(=O)[C@H](CCC(=O)O)NC(=O)[C@H](CC(C)C)NC(=O)[C@H](Cc1ccc(O)cc1)NC(=O)[C@H](CO)NC(=O)[C@H](CO)NC(=O)[C@@H](NC(=O)[C@H](CC(=O)O)NC(=O)[C@H](CO)NC(=O)[C@@H](NC(=O)[C@H](Cc1ccccc1)NC(=O)[C@@H](NC(=O)CNC(=O)[C@H](CCC(=O)O)NC(=O)C(C)(C)NC(=O)[C@@H](N)Cc1c[nH]cn1)[C@@H](C)O)[C@@H](C)O)C(C)C)C(C)C)C(=O)N[C@@H](CCC(N)=O)C(=O)N[C@@H](Cc1c[nH]c2ccccc12)C(=O)N[C@@H](CC(C)C)C(=O)N[C@@H](CC(C)C)C(=O)N[C@@H](CCC(=O)O)C(=O)N[C@@H](CCCCN)C(=O)NC(C)(C)C(=O)N[C@@H](CCCCN)C(=O)N[C@@H](CCC(=O)O)C(=O)N[C@@H](Cc1ccccc1)C(=O)N[C@@H](CC(C)C)C(N)=O [Compound 79, [Aib8,Glu23,Val25,Gln30,Leu33,Glu34,Lys35,Aib36,Lys37]-GLP-1-(7-37)-peptidyl-Glu-Phe-Leu amide] (H-H[Aib]EGTFTSDVSSYLEGEAVKEFIQWLLEK[Aib]KEFL-NH2) | 100
